What was measured:
[1] = test system: mouse Il33 gene promoter (IL-33 promoter-luci reporter); experiment: IL-33 promoter luciferase screen of FDA-approved Drug Library; format: cell-based; conditions: 10 μM, 24 hours; IL-33 promoter-luci vs control-luci stable Pam212 cells; 1056 molecules tested
Protocol: Pam212 cells were grown at 37° C. in DMEM (Thermo Fisher Scientific, Waltham, Mass., catalog no. 11995065) supplemented with 10% fetal bovine serum (Thermo Fisher Scientific, catalog no. 26140079), 1× penicillin-streptomycin-glutamine (Thermo Fisher Scientific, catalog no. 10378016), 1×MEM non-essential amino acids solution (Thermo Fisher Scientific, catalog no. 11140050), 1×HEPES (Thermo Fisher Scientific, catalog no. 15630080) and 0.1% 2-Mercaptoethanol (Thermo Fisher Scientific, catalog no. 21985023). PyMT cell lines (derived from a primary breast tumor of MMTV-PyMrg mouse on a C57BL/6 background) were grown at 37° C. in RPMI Medium 1640 (Thermo Fisher Scientific, catalog no. 11875093) supplemented with 10% fetal bovine serum, 1× penicillin-streptomycin-glutamine and 0.1% 2-Mercaptoethanol. IL-33 promoter-luci vector (GeneCopoeia, Rockville, Md., catalog no. MPRM3494-PG02) or Control-luci vector (deletion form of IL-33 promoter region from IL-33 promoter-luci vector) or Poly (I:C) (Invivogen, San Diego, Calif., catalog no. tlrl-pic) in Pam212 cells were performed using Lipofectamine 2000 (Thermo Fisher Scientific, catalog no. 11668019) according to the manufacturer's instructions.
After transfection of plasmids in Pam212 cells, cells were incubated with 3 μg/ml of puromycin (Invivogen, San Diego, Calif., catalog no. ant-pr-1) for positive transfected cell selection. After following 2 days, medium was changed new puromycin contained medium for further selection. After following 2 days, cells were moved to new plate with puromycin contained medium. Puromycin selection was repeated for five times more.
1000 stable cells were seed to 384 wells (Corning, Glendale, Ariz., catalog no. 3570) and each of plate was incubated 24 hours. Following day, 10 μM of FDA-approved Drug Library compounds (Selleckchem, Houston, Tex., catalog no. L1300) were added to each well. After 24 hours, 5 μL of luciferase buffer from Pierce Gaussia luciferase glow assay kit (Thermo Fisher Scientific, Waltham, Mass., catalog no. 16160) were added each well and incubated for 5 min. Each plate was read and measured with luminescence by EnVision 2014 plate reader (Perkin Elmer, Waltham, Mass., catalog no. 2014 EnVision).
To make small molecule screening platform, we generated both IL-33 promoter-luci and control-luci over-expressed stable epithelial cell line (Pam212) by multiple puromycin selection strategy (FIG. 10A). To find molecules that can inhibit IL-33 expression, we tested 1056 FDA-approved small molecules against our reporter cell line. […] To find bona fide inhibitors of IL-33, we checked RNA level of Il33 by qPCR in cells treated with inducer of IL-33 expression, Poly (I:C). After cells were treated by Poly (I:C), RNA level of Il33 was increased compared to carrier group. However, Il33 RNA level was decreased by pitavastatin and tropisetron in Poly I:C-treated cells (FIGS. 10C and D). […] Finally, endogenous IL-33 protein level was decreased after treatment with pitavastatin in a dose-dependent manner (FIG. 10F). Therefore, pitavastatin is a small inhibitor molecule of IL-33.

p-IRF3 = experiment: Poly (I:C) induced p-IRF3 expression in Pam212 cells; format: cell-based, mouse; conditions: Pam212 cells with Poly (I:C)
Protocol: Cell lysates were prepared in LIPA buffer (Thermo Fisher Scientific, catalog no. 89900) consisting of 1× protease inhibitor cocktail, EDTA-free (Thermo Fisher Scientific, catalog no. A32955). Mice tissues were meshed and lysed by 0.1% TWEEN-(Millipore Sigma, catalog no. P1379) in PBS. Mice tissues were frozen by liquid nitrogen and thaw by incubation at 37° C. for further lysis. Cell lysates were sonicated for […], and then they were centrifugated at 13,200 rpm. After checking the protein concentration of each sample, the same amount of proteins was loaded into Mini-PROTEIN TGX™ Gels (BIO-RAD, Hercules, Calif., catalog no. 456-1083 or 456-1086) with 1× Tris/Glycine/SDS buffer (BIO-RAD, catalog no. 1610732). A few minutes later (according to protein size), they were transferred to Immobilon-P membrane (Millipore Sigma, catalog no. IPVH00010) with Transfer buffer (Boston Bioproducts, Ashland, Mass., catalog no. BP-190). Then, they were incubated 3% bovine serum albumin (Thermo Fisher Scientific, catalog no. BP1600) or 5% Skim milk (BD biosciences, San Jose, Calif., catalog no. 232100) in 1× Tris-Buffered Saline (Boston Bioproducts, catalog no. BM301X) containing 0.1% TWEEN, called TBS-T for 30 min. After the membrane was washed with TBS-T, they were subjected to immunoblot with proper antibodies for overnight at 4° C. […]

O=C(O)C[C@H](O)C[C@H](O)/C=C/c1c(C2CC2)nc2ccccc2c1-c1ccc(F)cc1 [pitavastatin]
IL-33/Control luminescence ratio (inhibitory effect against IL-33 reporter) [1]: small molecule candidates
level of p-IRF3 (p-IRF3): decreased
